Results reported in article PMC10344656, “Plasma pharmacokinetics of tigolaner, emodepside, and praziquantel following topical administration of a combination product (Felpreva®) and of intravenous administration of the individual active ingredients in cats” (Current Research in Parasitology & Vector-borne Diseases, 2023).
Where two headings read alike, the source gives them in different places.

Assays:
[1] = Plasma pharmacokinetics after intravenous administration of the single active ingredients (Study 1); settings: for T1/2 (plasma half-life): Study 1, single i.v. bolus in tetraglycol, 0.2 mg/kg praziquantel (actual 1.62, 0.21, 0.21 mg/kg), n = 6 per group, HPLC-MS/MS, geometric mean (geometric CV%)
Description: (§1) Altogether three studies were conducted.
(§2) Each AI and treatment were evaluated separately.
(§3) All parameters were derived from individual animal data sets.
(§4) Relative data set weight was always set to 1.
The basic plasma PK characteristics of the active AIs tigolaner, emodepside and praziquantel were profiled after i.v. dosing based on at least the following parameters: Clearance (Cl), V, extrapolated concentration at time of dosing (C0), area under the curve until the last concentration above LoQ (AUClast), AUCinf, dose normalized AUClast and AUCinf (AUClast/D, AUCinf/D), mean residence time (MRT), and half-life. The statistical group mean estimates and suitable statistical parameters describing the distribution (scattering) were provided.

[2] = design: method as in Jacquot et al., 2021; settings: cats, Nexgard Combo spot-on, ref Jacquot et al., 2021; cited from earlier work
From the text: (§5) Felpreva® combines the established Profender® AIs, emodepside and praziquantel with tigolaner.

[3] = for AUClast/D (Geo CV%) / Cmax/D (Geo CV%): single topical Felpreva 1x, dose-normalised, geometric mean (geometric CV%)
Description: (§7) Altogether three studies were conducted. Cats were treated with Felpreva® (containing emodepside praziquantel and tigolaner) at the recommended dose (14.5 ​mg/kg tigolaner, 3 ​mg/kg emodepside and 12 ​mg/kg praziquantel) or at 2.5× and 5× the recommended dose. For intravenous (i.v.) injection (Study 1) tigolaner, emodepside and praziquantel were formulated in tetraglycol as 8.9%, 1.85% and 7.4% solutions, respectively.
(§8) All cats were healthy and acclimatized for a minimum of 7 days. In studies 1 and 2, cats were individually housed for 8 ​h or 10–12 days following i.v. or topical administration, respectively, to avoid potential cross-contamination between animals. After this period, cats were group-housed by treatment group and sex. In Study 3, cats were socially housed in groups of 3 (same sex/same dose group) in one or more connected similar cages. The exception was when cats were separated for designated study procedures/activities associated with dosing or urine and faeces collection.
(§9) In Study 1 where i.v. administration was performed, 6 animals per treatment group were treated with a slow manual i.v. bolus using a catheter placed in the Vv. saphena medialis or Vv. saphena lateralis, and suitable 1-ml single-use syringes. Catheters were placed immediately prior to administration and removed immediately afterwards. Tigolaner (in tetraglycol, C5H9O(OC2H4)nOH, CAS no. 31692-85-0) was administered at 1.5 ​mg/kg (volume: 70–80 ​μl), emodepside (in tetraglycol) was administered at 0.3 ​mg/kg (volume 40–70 ​μl) and praziquantel (in tetraglycol) was administered at 0.2 ​mg/kg (volume: 40–60 ​μl). Low dose rates were administered intravenously to ensure tolerance of an i.v. bolus. Where treatment was administered topically, a spot-on application was manually applied at the base of the head while the hair was divided with 2 fingers. In all studies, topical doses were calculated using individual BWs and the nominal content of the three AIs. The AIs were administered based on the licensed therapeutic dose of 14.5, 3 and 12 ​mg/kg BW for tigolaner, emodepside and praziquantel, respectively. Cats were restrained for approximately a minute following administration to aid spread of the applied formulation and to prevent any possible run-off. […] Cats were closely observed for 1 ​h after dosing and at least once daily thereafter.
(§10) Blood samples of ∼0.5 ​ml (Studies 1 and 2) and 1.0 ​ml (Study 3) were collected into EDTA K2E tubes from the Vv. cephalica antebrachii or another suitable vein. Plasma was harvested following centrifugation (10 ​°C, 3220× g for 10 ​min) and subsequently stored frozen at −18 ​°C.
(§11) Analysis of all samples was performed after finalisation of the biological part of the study. The plasma samples were deproteinised by mixing 100 ​μl of plasma with 900 ​μl of a precipitation mixture of 0.040 ​g ammonium acetate in 100 ​ml water plus 0.1 ​ml formic acid and 600 ​ml acetonitrile containing the internal standards praziquantel-cyclohexyl-d11and [^13C2H6] tigolaner and subsequent centrifugation. Analysis of the AIs tigolaner, emodepside, and praziquantel was conducted by using High Performance Liquid Chromatography with an Agilent Zorbax Eclipse Plus C18 Rapid Resolution, 2.1 ​× ​50 ​mm, 1.8 ​μm column, water/formic acid (1000/0.120, v/v) ​+ ​10 ​mMol/l ammonium formate and methanol/formic acid (1000/0.120, v/v) ​+ ​10 ​mMol/l ammonium formate as mobile phase (0–0.5 ​min at 90/10 v/v, gradient to 0/100 v/v at 3–3.5 ​min and gradient to 90/10 v/v at 4–5 ​min) at 60 ​°C with a flow of 0.6 ​ml/min. Detection was performed by Tandem Mass Spectrometry (HPLC-MS/MS) using a Sciex API 5500 mass spectrometer in the positive ionisation mode.

[4] = Excretion in urine and faeces after topical Felpreva (Study 3); settings: for route of clearance: in vivo
Description: Urine and faeces were collected from cats in Study 3 for analysis of excretion of the AIs. Sampling days per cat were study days 1, 2, 7, 14, 21 and 28. Cats were kept in stainless steel cages with a litter box for the collection of total urine and faeces. The total volume of urine was determined, thereafter 2 aliquots (A + B) of ∼5 ml urine were taken, collected in clear tubes and stored in a freezer set to maintain −18 °C. Faecal samples were weighed and stored in a freezer set to maintain −18 °C.
Urine samples were prepared for analysis by mixing 100 μl urine with 900 μl solvent mixture (as described above), containing labelled tigolaner and praziquantel as internal standards, and then centrifuged. […] The lower limit of quantitation was 1 μg/l.
Faecal samples were extracted by mixing 1 or 5 g faeces with 15 or 40 ml acetonitrile containing the internal standards. The mixture was ultrasonicated and shaken by means of an overhead shaker and then centrifuged. The supernatant was transferred into a flask and the residue extracted again with 5 or 30 ml extraction solvent, shaken, and centrifuged. The extracts were combined and filled up to 20 or 100 ml with extraction solvent containing the internal standards, then filtered. […] The limit of quantitation was 10 μg/kg for each analyte.

[5] = Plasma pharmacokinetics after single topical Felpreva at 2.5x and 5x dose multiples (Study 2); settings: for AUClast/D (Geo CV%) / Cmax/D (Geo CV%): dose-normalised, geometric mean (geometric CV%); for AUC(0-inf): AUCinf; for AUC(0-inf) / half-life / Tmax / AUCinf / T1/2: n = 8, geometric mean; for Cmax: n = 8, plasma, geometric mean; for half-life: T1/2, cats
Description: as §1, §2, §3, §4

[6] = in vivo; cited from earlier work
From the text: as §5

[7] = in vivo; settings: topical or ocular
Description: as §7, §8, §9, §10, §11

[8] = test system: fleas and ticks; settings: cats, single topical dose, minimum recommended dose 14.5 mg/kg body weight, ref Cvejić et al., 2022a, b; Mencke et al., 2023; cited from earlier work
From the text: (§6) Tigolaner, from the bis-pyrazole class of compounds has potent antiparasitic properties acting against γ-aminobutyric acid- (GABA-) and glutamate-gated chloride channels with significant selectivity for insect neurons over mammalian neurons ([EMA, 2022]). Tigolaner has a high potency against insects and acarids by exposure via their feeding, i.e. fleas and ticks that initiate feeding will be exposed to the AI ([Cvejić et al., 2022a], [b]; [Mencke et al., 2023]). A single tigolaner dose administered topically at the minimum recommended dose of 14.5 mg/kg body weight (BW) on cats provides 13 we ...

[9] = test system: fleas; settings: cats, topical, ref EMA, 2022; Mencke et al., 2023; cited from earlier work
From the text: as §6

[10] = cats, 1.5 mg/kg tigolaner, 0.2 mg/kg emodepside
[11] = cats, single topical Felpreva 2.5x
[12] = cats, single topical Felpreva 5x
[13] = Domestic Shorthair, in vivo, iv, 0.2 mg/kg
[14] = 2.5x dose relative to 1x dose, topical Felpreva, cats
[15] = 5x dose relative to 1x dose, topical Felpreva, cats
[16] = topical Felpreva, dose rates from 1x to 2.5x and 5x, cats, Cmax/D and AUClast/D
[17] = cats, single i.v. bolus, 1.5 mg/kg tigolaner, 0.2 mg/kg emodepside, 0.2 mg/kg praziquantel, n = 6, geometric mean (geometric CV%)
[18] = cats, Study 2, single topical Felpreva 2.5x, 0.37 ml/kg
[19] = cats, Study 2, single topical Felpreva 5x, 0.74 ml/kg

O=C(C1CCCCC1)N1CC(=O)N2CCc3ccccc3C2C1 (stereo not shown) [Praziquantel, praziquantel]
T1/2 (plasma half-life) [1, 10]: 1.8 (94.8) h | Cl_pred (systemic clearance) ([1]; in vivo): 1.861 (32.2) l/h/kg | Vz_pred (volume of distribution) ([1]; in vivo): 4.95 (142.2) l/kg | serum half-life [2]: 103 h | AUClast/D (Geo CV%) ([3]; cats): 0.30 (19.9) h∗kg∗μg/l/μg | Cmax/D (Geo CV%) ([3]; cats): 0.004 (57.2) kg∗μg/l/μg | AUCinf (total plasma exposure) ([3]; in vivo): 3.7 (19.6) mg∗h/l | AUClast ([3]; in vivo): 3.6 (19.7) mg∗h/l | Tmax ([3]; in vivo): 4.8 (107.7) h | absolute bioavailability after topical application ([3]; in vivo): 48% | bioavailability after topical application, first 24 h ([3]; in vivo): 6% | plasma elimination half-life ([3]; in vivo): 240 h | route of clearance [4]: equally cleared via the faeces and via the urine for males | AUClast/D (Geo CV%) [5, 11]: 0.19 (47.7) h∗kg∗μg/l/μg | Cmax/D (Geo CV%) [5, 11]: 0.003 (51.7) kg∗μg/l/μg | AUClast/D (Geo CV%) [5, 12]: 0.25 (22.2) h∗kg∗μg/l/μg | Cmax/D (Geo CV%) [5, 12]: 0.003 (39.8) kg∗μg/l/μg | Ratio Cmax/D ([5]; in vivo): 0.75 | dose proportionality of plasma PK (rate and extent) ([5]; in vivo): less than proportional increase | Tmax [6]: 18.7 ± 47 h | maximum serum concentration [6]: 61.3 ± 44.1 µg/L | serum half-life [6]: 98.4 ± 36 h

CC(C)C[C@H]1C(=O)O[C@H](Cc2ccc(N3CCOCC3)cc2)C(=O)N(C)[C@@H](CC(C)C)C(=O)O[C@H](C)C(=O)N(C)[C@@H](CC(C)C)C(=O)O[C@H](Cc2ccc(N3CCOCC3)cc2)C(=O)N(C)[C@@H](CC(C)C)C(=O)O[C@H](C)C(=O)N1C [Emodepside, emodepside]
AUC(0-inf) [1, 13]: 1600 ng·h/mL | AUC(0-t) [1, 13]: 1500 ng·h/mL | half-life [1, 13]: 202 h | Vd ([1]; in vivo, iv, 0.2 mg/kg): 38.2 L/kg | clearance ([1]; in vivo, iv, 0.2 mg/kg): 2.18 mL/min/kg | AUClast/D (Geo CV%) ([3]; cats): 6.79 (38.7) h∗kg∗μg/l/μg | Cmax/D (Geo CV%) ([3]; cats): 0.015 (61.0) kg∗μg/l/μg | route of clearance [4]: mainly cleared via the faeces | Tmax ([7]; Domestic Shorthair (DSH)): 36 h | AUC(0-inf) ([7]; Domestic Shorthair): 20600 ng·h/mL | AUC(0-t) ([7]; Domestic Shorthair): 20500 ng·h/mL | Cmax ([7]; Domestic Shorthair): 44.3 ng/mL | Tmax ([7]; Domestic Shorthair): 36.9 h | bioavailability ([7]; Domestic Shorthair): 90% | half-life ([7]; Domestic Shorthair): 348 h | Ratio AUClast/D [5, 14]: 0.64 | Ratio Cmax/D [5, 14]: 0.60 | Ratio AUClast/D [5, 15]: 0.66 | Ratio Cmax/D [5, 15]: 0.53 | AUC(0-inf) ([5]; European Shorthair (ESH), in vivo, topical or ocular, cats, Study 2, single topical Felpreva 2.5x, 0.37 ml/kg): 36100 ng·h/mL | AUC(0-inf) ([5]; European Shorthair (ESH), in vivo, topical or ocular, cats, Study 2, single topical Felpreva 5x, 0.74 ml/kg): 62500 ng·h/mL | Cmax ([5]; European Shorthair (ESH), in vivo, topical or ocular, Cmax, cats, Study 2, single topical Felpreva 5x, 0.74 ml/kg (72.5 mg/kg tigolaner, 15 mg/kg emodepside, 60 mg/kg praziquantel)): 106 ng/mL | half-life ([5]; European Shorthair (ESH), in vivo, topical or ocular, Study 2, single topical Felpreva 2.5x, 0.37 ml/kg): 329 h | half-life ([5]; European Shorthair (ESH), in vivo, topical or ocular, Study 2, single topical Felpreva 5x, 0.74 ml/kg): 328 h | Tmax ([5]; European Shorthair (ESH), in vivo, topical or ocular, Tmax, cats, Study 2, single topical Felpreva 2.5x, 0.37 ml/kg): 47.8 h | Tmax ([5]; European Shorthair (ESH), in vivo, topical or ocular, Tmax, cats, Study 2, single topical Felpreva 5x, 0.74 ml/kg): 61.9 h | AUClast/D (Geo CV%) [5, 11]: 4.32 (44.2) h∗kg∗μg/l/μg | Cmax/D (Geo CV%) [5, 11]: 0.009 (71.4) kg∗μg/l/μg | AUClast/D (Geo CV%) [5, 12]: 4.5 (36.5) h∗kg∗μg/l/μg | Cmax/D (Geo CV%) [5, 12]: 0.008 (35.7) kg∗μg/l/μg | dose proportionality of plasma PK (rate and extent) [5, 16]: less than proportional increase

Cn1nc(C(F)(F)C(F)(F)F)c(C(F)(F)F)c1-n1cc(-c2ccc(Cl)c(C(=O)NC3(C#N)CC3)c2)cn1 [Tigolaner, tigolaner]
T1/2 (plasma half-life) [1, 10]: 515.4 (54.2) h | AUCinf [1, 17]: 300.1 (29.1) mg∗h/l | AUClast [1, 17]: 298 (29.5) mg∗h/l | Cl_pred (systemic clearance) [1, 17]: 0.005 (31.7) l/h/kg | Vz_pred (volume of distribution) [1, 17]: 4.00 (56.5) l/kg | absolute bioavailability after topical application ([3]; cats, Study 1, Fabs = AUCinf/D spot-on / AUCinf/D i.v., group geometric means): 57% | AUClast/D (Geo CV%) ([3]; cats): 103.16 (32.9) h∗kg∗μg/l/μg | Cmax/D (Geo CV%) ([3]; cats): 0.092 (37.9) kg∗μg/l/μg | extent of metabolism (conclusion from excretion) ([4]; cats, Study 3, topical administration, 28 days): poorly metabolized | duration of flea and tick control [8]: 13 weeks | onset of efficacy, fleas already on the cat prior to treatment [9]: ≤ 12 h | onset of efficacy, new flea infestation, after two months [9]: ≤ 24 h | onset of efficacy, new flea infestation, for two months [9]: ≤ 8 h | Ratio AUClast/D [5, 14]: 1.05 | Ratio Cmax/D [5, 14]: 0.91 | Ratio AUClast/D [5, 15]: 0.76 | Ratio Cmax/D [5, 15]: 0.58 | Cmax ([5]; cats, Study 2, single topical Felpreva 2.5x, 0.37 ml/kg (36.25 mg/kg tigolaner, 7.5 mg/kg emodepside, 30 mg/kg praziquantel)): 2496.9 ng/mL | AUCinf [5, 18]: 3308 mg∗h/l | T1/2 [5, 18]: 569.9 h | Tmax [5, 18]: 440.4 h | Cmax ([5]; cats, Study 2, single topical Felpreva 5x, 0.74 ml/kg (72.5 mg/kg tigolaner, 15 mg/kg emodepside, 60 mg/kg praziquantel)): 3574.2 ng/mL | AUCinf [5, 19]: 5393 mg∗h/l | T1/2 [5, 19]: 563.2 h | AUClast/D (Geo CV%) [5, 11]: 108.66 (142.5) h∗kg∗μg/l/μg | Cmax/D (Geo CV%) [5, 11]: 0.084 (137.8) kg∗μg/l/μg | AUClast/D (Geo CV%) [5, 12]: 78.5 (30.7) h∗kg∗μg/l/μg | Cmax/D (Geo CV%) [5, 12]: 0.053 (34.0) kg∗μg/l/μg | dose proportionality of plasma PK (rate and extent) [5, 16]: less than proportional increase
